Test results published in the NIST ThermoML archive (doi:10.1016/j.jct.2008.10.010).
Numbers after ± are expanded uncertainties.

Assay: molar heat capacity at constant pressure; xn = mol fraction of the nth substance listed
Conditions: 101.3 kPa, Liquid, Small sample (50 mg) DSC

CCC(C)(C)O [2-methylbutan-2-ol] + CCCCCCC
Conditions | molar heat capacity at constant pressure [J/K/mol]
345.14 K, x1 = 0.0249 | 244.12 ± 3.8
345.14 K, x1 = 0.0494 | 246.22 ± 3.8
345.14 K, x1 = 0.1 | 253.28 ± 3.9
345.14 K, x1 = 0.1547 | 260.94 ± 4
345.14 K, x1 = 0.1999 | 266.5 ± 4.1
345.14 K, x1 = 0.2993 | 275.63 ± 4.3
345.14 K, x1 = 0.4051 | 282.19 ± 4.4
345.14 K, x1 = 0.4986 | 286.41 ± 4.4
345.14 K, x1 = 0.5981 | 289.46 ± 4.5
345.14 K, x1 = 0.7015 | 291.51 ± 4.5
345.14 K, x1 = 0.8023 | 291.94 ± 4.5
345.14 K, x1 = 0.9139 | 291.66 ± 4.5
345.14 K, x1 = 0.9609 | 290.76 ± 4.5
346.15 K, x1 = 0.0061 | 244.11 ± 3.8
346.15 K, x1 = 0.0249 | 244.51 ± 3.8
346.15 K, x1 = 0.0494 | 246.51 ± 3.8
346.15 K, x1 = 0.1 | 253.41 ± 3.9
346.15 K, x1 = 0.1547 | 261 ± 4
346.15 K, x1 = 0.1999 | 266.61 ± 4.1
346.15 K, x1 = 0.2993 | 275.72 ± 4.3
346.15 K, x1 = 0.4051 | 282.35 ± 4.4
346.15 K, x1 = 0.4986 | 286.63 ± 4.4
346.15 K, x1 = 0.5981 | 289.78 ± 4.5
346.15 K, x1 = 0.7015 | 291.88 ± 4.5
346.15 K, x1 = 0.8023 | 292.49 ± 4.5
346.15 K, x1 = 0.9139 | 292.09 ± 4.5
346.15 K, x1 = 0.9609 | 291.29 ± 4.5
347.13 K, x1 = 0.0494 | 246.82 ± 3.8
347.15 K, x1 = 0.9139 | 292.63 ± 4.5
347.16 K, x1 = 0.0061 | 244.48 ± 3.8
347.16 K, x1 = 0.0249 | 244.81 ± 3.8
347.16 K, x1 = 0.1 | 253.4 ± 3.9
347.16 K, x1 = 0.1547 | 261.01 ± 4
347.16 K, x1 = 0.1999 | 266.57 ± 4.1
347.16 K, x1 = 0.2993 | 275.89 ± 4.3
347.16 K, x1 = 0.4051 | 282.48 ± 4.4
347.16 K, x1 = 0.4986 | 286.83 ± 4.4
347.16 K, x1 = 0.5981 | 290.05 ± 4.5
347.16 K, x1 = 0.7015 | 292.26 ± 4.5
347.16 K, x1 = 0.8023 | 292.88 ± 4.5
347.16 K, x1 = 0.9609 | 291.82 ± 4.5
348.14 K, x1 = 0.0061 | 244.95 ± 3.8
348.14 K, x1 = 0.0249 | 245.23 ± 3.8
348.14 K, x1 = 0.0494 | 247.05 ± 3.8
348.14 K, x1 = 0.1 | 253.5 ± 3.9
348.14 K, x1 = 0.2993 | 275.95 ± 4.3
348.14 K, x1 = 0.4051 | 282.77 ± 4.4
348.14 K, x1 = 0.4986 | 287.07 ± 4.5
348.14 K, x1 = 0.5981 | 290.42 ± 4.5
348.14 K, x1 = 0.7015 | 292.68 ± 4.5
348.14 K, x1 = 0.8023 | 293.3 ± 4.5
348.14 K, x1 = 0.9139 | 293.11 ± 4.5
348.14 K, x1 = 0.9609 | 292.28 ± 4.5
348.16 K, x1 = 0.1547 | 261.02 ± 4
348.16 K, x1 = 0.1999 | 266.63 ± 4.1
349.15 K, x1 = 0.0061 | 245.31 ± 3.8
349.15 K, x1 = 0.0249 | 245.69 ± 3.8
349.15 K, x1 = 0.0494 | 247.42 ± 3.8
349.15 K, x1 = 0.1 | 253.6 ± 3.9
349.15 K, x1 = 0.1547 | 261.07 ± 4
349.15 K, x1 = 0.1999 | 266.66 ± 4.1
349.15 K, x1 = 0.2993 | 276.06 ± 4.3
349.15 K, x1 = 0.4051 | 282.91 ± 4.4
349.15 K, x1 = 0.4986 | 287.38 ± 4.5
349.15 K, x1 = 0.5981 | 290.79 ± 4.5
349.15 K, x1 = 0.7015 | 293.13 ± 4.5
349.15 K, x1 = 0.8023 | 293.78 ± 4.5
349.15 K, x1 = 0.9139 | 293.7 ± 4.5
349.15 K, x1 = 0.9609 | 292.9 ± 4.5
350.15 K, x1 = 0.0061 | 245.7 ± 3.8
350.15 K, x1 = 0.0494 | 247.73 ± 3.8
350.15 K, x1 = 0.1999 | 266.71 ± 4.1
350.15 K, x1 = 0.4986 | 287.48 ± 4.5
350.15 K, x1 = 0.5981 | 290.98 ± 4.5
350.15 K, x1 = 0.7015 | 293.35 ± 4.5
350.15 K, x1 = 0.8023 | 294.18 ± 4.6
350.15 K, x1 = 0.9139 | 294.04 ± 4.6
350.15 K, x1 = 0.9609 | 293.31 ± 4.5
350.16 K, x1 = 0.0249 | 245.9 ± 3.8
350.16 K, x1 = 0.1 | 253.7 ± 3.9
350.16 K, x1 = 0.1547 | 261.07 ± 4
350.16 K, x1 = 0.2993 | 276.06 ± 4.3
350.16 K, x1 = 0.4051 | 283.01 ± 4.4
351.14 K, x1 = 0.0061 | 246.16 ± 3.8
351.14 K, x1 = 0.0249 | 246.29 ± 3.8
351.14 K, x1 = 0.0494 | 247.89 ± 3.8
351.14 K, x1 = 0.1 | 253.68 ± 3.9
351.14 K, x1 = 0.1547 | 261.02 ± 4
351.14 K, x1 = 0.1999 | 266.6 ± 4.1
351.14 K, x1 = 0.4051 | 283 ± 4.4
351.14 K, x1 = 0.4986 | 287.61 ± 4.5
351.14 K, x1 = 0.5981 | 291.23 ± 4.5
351.14 K, x1 = 0.7015 | 293.67 ± 4.5
351.14 K, x1 = 0.8023 | 294.44 ± 4.6
351.14 K, x1 = 0.9139 | 294.48 ± 4.6
351.14 K, x1 = 0.9609 | 293.76 ± 4.5
351.16 K, x1 = 0.2993 | 276.1 ± 4.3
352.15 K, x1 = 0.0061 | 246.53 ± 3.8
352.15 K, x1 = 0.0249 | 246.7 ± 3.8
352.15 K, x1 = 0.0494 | 248.24 ± 3.9
352.15 K, x1 = 0.1 | 253.93 ± 3.9
352.15 K, x1 = 0.1547 | 261.06 ± 4
352.15 K, x1 = 0.1999 | 266.66 ± 4.1
352.15 K, x1 = 0.2993 | 276.22 ± 4.3
352.15 K, x1 = 0.4051 | 283.15 ± 4.4
352.15 K, x1 = 0.4986 | 287.82 ± 4.5
352.15 K, x1 = 0.5981 | 291.44 ± 4.5
352.15 K, x1 = 0.7015 | 293.88 ± 4.5
352.15 K, x1 = 0.8023 | 294.82 ± 4.6
352.15 K, x1 = 0.9139 | 294.82 ± 4.6
352.15 K, x1 = 0.9609 | 294.14 ± 4.6
353.15 K, x1 = 0.0061 | 246.79 ± 3.8
353.15 K, x1 = 0.0249 | 247.03 ± 3.8
353.15 K, x1 = 0.0494 | 248.53 ± 3.9
353.15 K, x1 = 0.1 | 253.91 ± 3.9
353.15 K, x1 = 0.1547 | 260.99 ± 4
353.15 K, x1 = 0.1999 | 266.57 ± 4.1
353.15 K, x1 = 0.2993 | 276.2 ± 4.3
353.15 K, x1 = 0.4051 | 283.18 ± 4.4
353.15 K, x1 = 0.4986 | 287.86 ± 4.5
353.15 K, x1 = 0.5981 | 291.63 ± 4.5
353.15 K, x1 = 0.7015 | 294.17 ± 4.6
353.15 K, x1 = 0.8023 | 295.16 ± 4.6
353.15 K, x1 = 0.9139 | 295.27 ± 4.6
353.15 K, x1 = 0.9609 | 294.55 ± 4.6
